Values joined by “and” are separate entries in the source; they are usually repeats but may differ in a detail not shown here. Identical values can stand only once. Active and inactive are the calls of the source.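 Rule for the calls: active = compounds giving half or more protection of infected cells from virus-caused growth loss, again on retest; inactive = the rest.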 Where a SMILES comes first, the peptide text is derived from it. Bridges are numbered along the chain shown (N, C = ends). Roman numbers before positions name the chains, in order.
Tested on: CEM cells HIV-1 protection, formazan growth assay
Assay: NCI AIDS Antiviral Assay
Settings: for IC50: measured here: growth of uninfected CEM cells
Summary of the method: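 Screen of anti-HIV-1 activity in human CEM cells using a formazan-based growth measurement at five drug concentrations. Hits with 50% or greater protection were repeated, and confirmation required reproducible complete protection.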

SMILES	EC50 [µM]	IC50	outcome
CCC12CCCN(Cc3ccccc3)C1c1c([nH]c3ccccc13)C(CO)C2 (stereo not drawn)	> 26.3	> 26.3 µM	
COc1c(C(=O)O)oc2c(OC)cccc12			inactive
O=C(Nc1ccc(Cl)c(Cl)c1)O/N=C\c1c(Cl)ccc([N+](=O)[O-])c1Cl			inactive
Cc1ccc(S(=O)(=O)OC2C3CC4C(=O)OC2C4C3)cc1 (stereo not drawn)	126	> 200 µM	
Cc1nc2ccc(Cl)cc2c2c1CCN2c1ccc(F)cc1	> 200	11.5 µM	
Cc1cc(C#N)c(Nc2ccc(F)cc2[N+](=O)[O-])s1	> 200	> 200 µM	
c1cc(C2O[C@H]3CCCN3[C@@H]2c2ccncc2)ccn1 (stereo partly drawn)	> 933	331 µM	
COC(=O)c1ccc(OCc2ccc3nc(OC)c(OC)nc3c2)cc1	> 4.07	> 4.07 µM	
CC(C)(SSC(C)(C)C1NC(=O)NC1=O)C1NC(=O)NC1=O (stereo not drawn)	> 200	120 µM	
CNC(=O)[C@@H](C)C1C(=O)/C(=C(O)\C=C\C(C)C)C(=O)N1C1CCC(O)C(C)O1 (stereo partly drawn)			inactive
CC(=O)OC1C(OC(C)=O)[C@@]2(C)C(C(O)[C@@H]3C2C(C)C=C2OC(=O)[C@@](C)(O)[C@@]23C)[C@H]2C1[C@]1(C)C(C[C@@H]3O[C@@H]3C1OC(C)=O)C(=O)[C@@H]2O (stereo partly drawn)			inactive
C[C@@H]1c2ccc3c(c2C2(O)C[C@H]4CCC1N2C4)CC1[C@H]3CC(=O)C2C[C@@H](O)CC[C@@]21C (stereo partly drawn)	> 155	> 155 µM	
CN(O)C(=O)Cc1ccc(OCc2cccc(Cl)c2)cc1	> 200	> 200 µM	
COc1ccc(CCCN2c3ccccc3Sc3ccccc32)cc1	> 10.7	> 10.7 µM	
CC(C)C[C@H]1[C@@H](OCc2ccccc2)COS(=O)N1[C@H](C)c1ccccc1 (stereo partly drawn)	> 200	9.55 µM	
CCOP(=O)(OCC)/C(C#N)=C/c1coc2cc(C)cc(C)c2c1=O	> 200	> 200 µM	
CC1CN=C(N(C(=O)Nc2ccc(F)c(Cl)c2)c2ccccc2)S1 (stereo not drawn)			inactive
C=C1[C@@H]2CCC(C)(C)[C@H]1CCC(=O)[C@@H]2C(=O)OC	> 269	251 µM	
O=C1CCCC2=C1C(c1ccncc1)Nc1ccccc1N2 (stereo not drawn)	> 200	> 200 µM	
O=[N+]([O-])/C=C/c1cc2ccccc2[nH]1	> 200	6.31 µM	
Cc1c(C)c2c(c(N)c1C#N)C(=O)N(N)C2=O	> 200	132 µM	
CC(=O)OCC1OC(SC2=N/C(=C\c3cc4c(=O)c5ccccc5sc4s3)C(=O)N2c2ccccc2)C(OC(C)=O)C(OC(C)=O)C1OC(C)=O (stereo not drawn)	> 200	115 µM	
Cc1ccc(S(=O)Cc2ccc(C(=O)O)cc2[N+](=O)[O-])cc1 (stereo not drawn)			inactive

SMILES	EC50 [µM]	IC50	outcome
O=C1OC2(OC2c2ccc(Cl)cc2)c2ccccc21 (stereo not drawn)	> 69.2	> 69.2 µM	
Cc1ccc(-c2nnc3s/c(=C\c4ccc(N(C)C)cc4)c(=O)n23)cc1	> 27.5	16.2 µM	
Cn1ccnc1.[O-][Cl+3]([O-])([O-])[O-].[Pt+2].c1ccc(-c2cccc(-c3ccccn3)n2)nc1	> 200	13.5 µM	
N#C/C(=C1\SC(=O)CN1c1ccccc1)c1nc2ccccc2o1	> 200	> 200 µM	
CCC(C)[C@@H](NCc1ccccc1)[C@H](OCc1ccccc1)[C@@H]1COC(C)(C)O1 (stereo partly drawn)	> 200	22.4 µM	
COc1ccc(C2c3cc4c(cc3OC(NNc3ccccc3)C2C)OCO4)cc1 (stereo not drawn)	> 200	11.7 µM	
CCN(CC)C(=S)SCn1ncc2ccc([N+](=O)[O-])cc21	> 107	10 µM	
CN1CCN(C(=S)N(C(=O)c2cccs2)C2CCCCC2)CC1	> 195	91.2 µM	
CCOC(=O)c1nc2cc(F)cc(F)c2[nH]c1=O	> 200	162 µM	
CCCCCCCCCCCCCCCCOP(=O)(O)OCC(NC(C)=O)C(=O)O (stereo not drawn)	> 200	63.1 µM	
CC1=CC(C)(C)Nc2ccc(OC(=O)/C=C(C)/C=C/C=C(C)/C=C/C3=C(C)CCCC3(C)C)cc21	> 200	27.5 µM	
CCOC(=O)c1oc2c(OC)cc(Cl)c3c2c1CCC3			inactive
O=C1C2C3C4C1C1C2[C@H](OCc2ccccc2)C3C1[C@H]4OCc1ccccc1 (stereo partly drawn)	> 200	42.7 µM	
O=S1(=O)c2ccccc2-c2ccccc21			inactive
O=S(O)CCCSSCCCCSSCCCS(=O)O			inactive
O=S(=O)(O)SCNCNCCSCc1ccccc1	> 138	45.7 µM	
Cc1cc2cc3cc(C)c(N)cc3nc2cc1N	> 2	0.661 µM	
CC(=O)Nn1cnc(C(=N)C#N)c1N	> 200	> 200 µM	
C1CSCCSCCSCCSCCS1	> 17.4	> 17.4 µM	
Cc1cccc(CC(=O)c2ccccc2)n1	> 200	53.7 µM	
Cc1ccc(C(=O)C2=CN=C3C(=O)N(c4ccccc4)N(C)C3(C)C2=N)cc1 (stereo not drawn)	> 200	> 200 µM	
O=C1OC(O)C(Oc2ccc(Cl)cc2)=C1Cl (stereo not drawn)	> 437	195 µM	
CC(C)(NC(=O)OCc1ccccc1)C(=O)NC(Cc1ccccc1)C(=O)O (stereo not drawn) (HELM PEPTIDE1{[O=C(OCc1ccccc1)[*:2]].[Aib].[O=C(O)C(Cc1ccccc1)N[*:1]]}$$$$V2.0)	> 200	> 200 µM	

SMILES	EC50 [µM]	IC50	outcome
O=C(NC(=O)c1c(Cl)nc2sccn12)Nc1ccc(Cl)cc1	> 10	> 10 µM	
COc1ccc(S(=O)(=O)Nc2ccccc2C(=O)O)cc1			inactive
CCOC(=O)c1c(-c2ccc(OC)c(O)c2)c(C#N)c(=S)n(C2OC(COC(C)=O)C(OC(C)=O)C(OC(C)=O)C2OC(C)=O)c1-c1ccccc1 (stereo not drawn)	> 200	102 µM and 56.2 µM	
S=C(c1c[nH]c2ccccc12)N1CCN(c2ccccc2)CC1	> 200	158 µM	
Nc1c2nc(Nc3ccccc3)sc2nc(=S)n1-c1ccc([N+](=O)[O-])cc1	> 50.1	> 50.1 µM	
CC1(c2cc(Cl)c(Cl)cc2Cl)NC(=O)NC1=O (stereo not drawn)			inactive
CCOC(=O)Cc1nc2sc(S(N)(=O)=O)nn2c1Br	> 200	10 µM	
Cn1c(=S)[nH]c2c(Cl)cc(Cl)cc2c1=O	> 200	138 µM	
CCC1(OC(=O)CNC)C(=O)OCc2c1cc1n(c2=O)Cc2cc3ccccc3nc2-1 (stereo not drawn)	> 10	0.00977 µM	
Cc1oc2c(C)c3oc(=O)cc(C)c3cc2c1CO	> 200	30.2 µM	
On1c(-c2ccccc2)c(-c2c(-c3ccccc3)n(O)c3ccccc23)c2ccccc21	> 316	132 µM	
CCc1n[nH]c(=O)n1N1C(=O)C2CC=CCC2C1=O (stereo not drawn)	> 200	> 200 µM	
COc1cc2cc[n+]3c4cc(OC)c(OC)cc4c(C)cc3c2cc1OC			inactive
NC1C2CC3CC(C2)CC1(N)C3 (stereo not drawn)			inactive
Cc1ccc(SCC(CSCCO)OCn2cnc3c2NC(N)=NC32OCCO2)cc1 (stereo not drawn)	> 200	> 200 µM	
O=C(O)C1(C(O)c2ccccc2)SCCCS1 (stereo not drawn)	> 200	> 200 µM	
CC(SC(=S)N1CCOCC1)c1cc2oc(=O)n(C)c2cc1Cl (stereo not drawn)	> 10	> 10 µM	
CN(C)c1ccc(/C=C2\C=Cc3ccccc32)cc1Br	> 8.32	> 8.32 µM	
Cc1ccc(/C(O)=C/c2nc3ccccc3oc2=O)cc1	> 200	55 µM	
Cc1ccc(S(=O)(=O)N(/N=C/C=C/c2ccccc2)c2nnc(-c3ccccc3)c(-c3ccccc3)n2)cc1	> 18.6	10 µM	
COc1cccc(OC)c1SSCCN	> 200	24.5 µM	
O=C1CCCCC1C(O)(C(F)(F)F)C(F)(F)Cl (stereo not drawn)	> 200	85.1 µM	
CCOC(=O)C1(C(N)=O)C(=O)c2ccncc2C1=O (stereo not drawn)	> 200	> 200 µM	

SMILES	EC50 [µM]	IC50	outcome
CCN(CC)c1c(C(=O)/C=C/c2ccc(Cl)cc2)c(-c2ccccc2)nn(C)c1=O	> 23.4	4.9 µM	
CC(C)N(C)C(=O)C12C3C4C1C1C2C3C41C#N (stereo not drawn)			inactive
Nc1ncc(C[P+](c2ccccc2)(c2ccccc2)c2ccccc2)c(N)n1	> 200	> 200 µM	
OCCNCNc1nc(NCNCCO)nc(N(CNCCO)CNCCO)n1	> 200	26.9 µM	
CCC(C)C1C(=O)ON=C1N (stereo not drawn)	> 200	> 200 µM	
CCC12OC(COc3ccccc3)CN1CCS2 (stereo not drawn)	> 257	132 µM	
O=[N+]([O-])c1ccc(Sc2ccc([N+](=O)[O-])cc2)cc1			inactive
CC1=C(C(=O)NCc2ccccc2)C(c2ccc(Cl)c(Cl)c2)C(C(=O)NCc2ccccc2)=C(C)N1			inactive
CC(C)(C)c1cc(COc2c3sc(=S)sc3c(OCc3cc(C(C)(C)C)cc(C(C)(C)C)c3)c3sc(=S)sc23)cc(C(C)(C)C)c1			inactive
CC(=O)OC1C=CC(OC(C)=O)C2C1[C@H]1C3C=CC=CC3[C@@H]2S1=O (stereo partly drawn)	> 200	112 µM	
O=S(=O)(O)c1ccc(N=Nc2ccc(N=Nc3c(S(=O)(=O)O)cc4cc(S(=O)(=O)O)cc(O)c4c3O)cc2)cc1			inactive
Nc1ccc2c(c1)C(=O)N1CCC[C@H]1C(=O)N2	> 200	> 200 µM	
OC1CN=C2c3ccccc3C(O)(c3ccc(Cl)cc3)N2C1 (stereo not drawn)	> 200	44.7 µM	
CC(C)=CCC/C(C)=C/CC/C(C)=C/OP(=O)(O)OP(=O)(O)O	> 162	> 162 µM	
O=C(NC12CC3CCC1CC(C3)C2)[C@@H]1CCCN1C(=O)OCc1ccccc1 (stereo partly drawn)			inactive
CC(C)CC(NC(=O)C(N)CSSCC(N)C(=O)NC(CC(C)C)C(=O)O)C(=O)O (stereo not drawn) (I: H-Cys-Leu-OH / II: H-Cys-Leu-OH; disulfide I:1-II:1; configuration not given here)			inactive
O=C1C=C(NCCc2ccccc2)c2ccccc2C1=O	> 36.3	25.1 µM	
Nc1ncnc2c1ncn2COC/C=C/I	> 204	155 µM	
Cc1ccsc1C(=S)Nc1ccc(Cl)c(/C=N/OC(C)C)c1	0.0575	10.7 µM	
CCOP(=O)(OCC)/C(C#N)=C/c1ccnc2ccccc12	> 200	11.2 µM	
